Among the data in US20070117770A1, “Human ribosomal DNA (rDNA) and ribosomal RNA (rRNA) nucleic acids and uses thereof” (Cylene Pharmaceuticals, Inc., priority 2005, published 2007) are remaining activity values, retold here.

Common to all, as to assay: Protein kinase inhibition assay
What all share (format): biochemical

One test deals with CDK1/cyclinB(h) (Homo sapiens, UniProt P06493). Conditions: read-out: percent residual activity of CDK1/cyclinB(h). Here is the method:
(§1) Certain compounds were tested for activity in protein kinase inhibition assays. All substrates were dissolved and diluted to working stocks in de-ionized water, apart from histone H1 (10× working stock in 20 mM MOPS pH 7.0), PDKtide (10× working stock in 50 mM Tris pH 7.0) ATF2 (which is typically stored at a 20× working stock in 50 mM Tris pH 7.5, 150 mM NaCl, 0.1 mM EGTA, 0.03% Brij-35, 50% glycerol, 1 mM benzamidine, 0.2 mM PMSF and 0.1% R-mercaptoethanol), KKLNRTLSFAEPG (SEQ ID NO:203) and RRRLSFAEPG (SEQ ID NO:204) (50 mM HEPES pH 7.4) and GGEEEEYFELVKKKK (SEQ ID NO:205) (20 mM MOPS pH 7.0). All kinases were pre-diluted to a 10× working concentration prior to addition into the assay. The composition of the dilution buffer for each kinase is detailed below.
(§2) In a final reaction volume of 25 μl, CDK1/cyclinB (h) (5-10 mU) is incubated with 8 mM MOPS pH 7.0, 0.2 mM EDTA, 0.1 mg/ml histone H1, 10 mM MgAcetate and [gamma-33P-ATP] (specific activity approx. 500 cpm/pmol, concentration as required). The reaction is initiated by the addition of the MgATP mix. After incubation for 40 minutes at room temperature, the reaction is stopped by the addition of 5 μl of a 3% phosphoric acid solution. 10 μl of the reaction is then spotted onto a P30 filtermat and washed three times for 5 minutes in 75 mM phosphoric acid and once in methanol prior to drying and scintillation counting.

In a further test the target is DDR2(h) (Homo sapiens, UniProt Q16832). Conditions: read-out: percent residual activity of DDR2(h). Here is the method:
as §1
In a final reaction volume of 25 μl, DDR2 (h) (5-10 mU) is incubated with 8 mM MOPS pH 7.0, 0.2 mM EDTA, 250 μM KKSRGDYMTMQIG (SEQ ID NO:210), 10 mM MnCl2, 10 mM MgAcetate and [y-33P-ATP] (specific activity approx. 500 cpm/pmol, concentration as required). The reaction is initiated by the addition of the MgATP mix. After incubation for 40 minutes at room temperature, the reaction is stopped by the addition of 5 μl of a 3% phosphoric acid solution. […]

The next test has as its target IGF-1R(h) (Homo sapiens, UniProt P08069). Conditions: read-out: percent residual activity of IGF-1R(h). Here is the method:
as §1
In a final reaction volume of 25 μl, IGF-1R (h) (5-10 mU) is incubated with 50 mM Tris pH 7.5, 0.1 mM EGTA, 0.1 mM Na3VO4, 0.1% R-mercaptoethanol, 250 μM KKKSPGEYVNIEFG (SEQ ID NO:207), 10 mM MnCl2, 10 mM MgAcetate and [gamma-33P-ATP] (specific activity approx. 500 cpm/pmol, concentration as required). The reaction is initiated by the addition of the MgATP mix. After incubation for 40 minutes at room temperature, the reaction is stopped by the addition of 5 μl of a 3% phosphoric acid solution. […]

The target in the next test is PKBα(h) (Homo sapiens, UniProt P31749). As to conditions: read-out: percent residual activity of PKBα(h). Here is the method:
as §1
as §2, with “PKBα” for “CDK1/cyclinB”, “30 μM GRPRTSSFAEGKK (SEQ ID NO:232),” for “0.1 mg/ml histone H1,”

For another test, the target named is PRAK(h) (Homo sapiens, UniProt Q8IW41). Conditions: read-out: percent residual activity of PRAK(h). Here is the method: as §1
Sequence of PRAK(h) (Q8IW41 whole entry): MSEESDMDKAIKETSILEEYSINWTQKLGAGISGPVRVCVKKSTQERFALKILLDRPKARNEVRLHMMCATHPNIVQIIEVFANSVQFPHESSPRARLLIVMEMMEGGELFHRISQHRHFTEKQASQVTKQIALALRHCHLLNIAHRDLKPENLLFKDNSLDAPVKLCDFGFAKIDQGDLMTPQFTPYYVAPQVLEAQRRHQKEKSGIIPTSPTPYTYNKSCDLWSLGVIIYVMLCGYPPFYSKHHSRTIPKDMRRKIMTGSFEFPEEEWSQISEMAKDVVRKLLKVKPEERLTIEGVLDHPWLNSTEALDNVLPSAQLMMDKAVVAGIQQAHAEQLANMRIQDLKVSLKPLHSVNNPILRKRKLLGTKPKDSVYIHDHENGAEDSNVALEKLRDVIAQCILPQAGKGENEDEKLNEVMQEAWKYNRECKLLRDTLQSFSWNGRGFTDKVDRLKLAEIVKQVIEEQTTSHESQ
In a final reaction volume of 25 μl, PRAK (h) (5-10 mU) is incubated with 50 mM Na R-glycerophosphate pH 7.5, 0.1 mM EGTA, 30 μM KKLRRTLSVA (SEQ ID NO:212), 10 mM MgAcetate and [gamma-33P-ATP) (specific activity approx. 500 cpm/pmol, concentration as required). The reaction is initiated by the addition of the MgATP mix. After incubation for 40 minutes at room temperature, the reaction is stopped by the addition of 5 μl of a 3% phosphoric acid solution. […]

For another test, the target named is SGK2(h) (Homo sapiens, UniProt Q9HBY8). Conditions: read-out: percent residual activity of SGK2(h). Here is the method: as §1
Sequence of SGK2(h) (Q9HBY8 whole entry): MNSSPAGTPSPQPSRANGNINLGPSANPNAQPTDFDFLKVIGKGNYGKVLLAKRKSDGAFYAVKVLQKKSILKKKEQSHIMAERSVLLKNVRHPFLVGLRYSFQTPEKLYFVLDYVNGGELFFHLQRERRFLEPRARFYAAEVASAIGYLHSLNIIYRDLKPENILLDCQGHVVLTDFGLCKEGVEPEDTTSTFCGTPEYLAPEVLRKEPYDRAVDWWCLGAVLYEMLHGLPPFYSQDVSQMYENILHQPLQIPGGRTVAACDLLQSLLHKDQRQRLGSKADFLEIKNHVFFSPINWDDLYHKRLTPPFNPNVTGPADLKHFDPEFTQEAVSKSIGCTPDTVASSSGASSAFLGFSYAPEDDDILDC
as §2, with “SGK2” for “CDK1/cyclinB”, “30 μM GRPRTSSFAEGKK (SEQ ID NO:226),” for “0.1 mg/ml histone H1,”

Sequence of PKBα(h) (P31749 whole entry): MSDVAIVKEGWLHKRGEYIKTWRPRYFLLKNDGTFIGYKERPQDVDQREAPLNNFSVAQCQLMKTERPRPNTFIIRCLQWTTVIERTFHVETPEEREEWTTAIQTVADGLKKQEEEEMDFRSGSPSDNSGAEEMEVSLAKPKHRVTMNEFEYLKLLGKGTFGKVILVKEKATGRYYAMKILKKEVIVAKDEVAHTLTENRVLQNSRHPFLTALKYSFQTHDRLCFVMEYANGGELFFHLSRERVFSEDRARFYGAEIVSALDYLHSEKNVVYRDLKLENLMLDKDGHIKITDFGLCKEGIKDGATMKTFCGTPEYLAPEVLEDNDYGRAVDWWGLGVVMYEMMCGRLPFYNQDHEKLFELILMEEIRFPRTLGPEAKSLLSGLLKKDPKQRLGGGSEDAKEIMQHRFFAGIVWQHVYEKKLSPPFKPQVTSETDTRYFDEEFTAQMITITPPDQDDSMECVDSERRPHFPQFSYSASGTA
Sequence of DDR2(h) (Q16832 22-855): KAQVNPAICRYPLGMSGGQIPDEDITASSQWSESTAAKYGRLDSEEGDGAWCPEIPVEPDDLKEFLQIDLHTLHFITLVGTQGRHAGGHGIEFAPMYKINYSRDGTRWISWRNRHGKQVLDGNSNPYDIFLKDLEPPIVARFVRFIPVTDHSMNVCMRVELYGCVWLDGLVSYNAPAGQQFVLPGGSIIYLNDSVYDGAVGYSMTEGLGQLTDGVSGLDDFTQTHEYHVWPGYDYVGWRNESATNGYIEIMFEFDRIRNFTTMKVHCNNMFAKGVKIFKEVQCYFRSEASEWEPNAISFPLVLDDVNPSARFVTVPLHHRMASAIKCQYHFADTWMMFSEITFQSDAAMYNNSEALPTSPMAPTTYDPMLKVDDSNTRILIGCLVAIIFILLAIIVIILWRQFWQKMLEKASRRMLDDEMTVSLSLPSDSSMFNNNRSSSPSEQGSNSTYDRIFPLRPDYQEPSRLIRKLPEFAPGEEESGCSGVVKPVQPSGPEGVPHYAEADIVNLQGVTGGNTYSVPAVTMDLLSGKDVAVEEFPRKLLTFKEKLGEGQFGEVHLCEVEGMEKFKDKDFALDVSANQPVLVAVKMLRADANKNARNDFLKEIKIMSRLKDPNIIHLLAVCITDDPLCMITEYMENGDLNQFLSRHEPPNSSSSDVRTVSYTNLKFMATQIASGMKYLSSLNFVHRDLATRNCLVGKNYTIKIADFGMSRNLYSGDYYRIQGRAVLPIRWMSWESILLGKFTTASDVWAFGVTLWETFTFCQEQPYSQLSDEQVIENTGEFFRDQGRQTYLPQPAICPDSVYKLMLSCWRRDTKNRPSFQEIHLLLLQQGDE
Sequence of CDK1/cyclinB(h) (P06493 whole entry): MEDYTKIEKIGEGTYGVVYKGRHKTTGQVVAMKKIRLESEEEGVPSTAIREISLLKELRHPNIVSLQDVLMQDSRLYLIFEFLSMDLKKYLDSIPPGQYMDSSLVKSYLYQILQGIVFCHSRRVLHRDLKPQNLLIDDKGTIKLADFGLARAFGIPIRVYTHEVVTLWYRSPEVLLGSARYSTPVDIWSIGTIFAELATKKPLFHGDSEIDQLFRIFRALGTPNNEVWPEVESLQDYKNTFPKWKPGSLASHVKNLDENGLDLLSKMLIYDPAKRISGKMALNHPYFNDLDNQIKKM
Sequence of CDK1/cyclinB(h) (P14635 whole entry partner): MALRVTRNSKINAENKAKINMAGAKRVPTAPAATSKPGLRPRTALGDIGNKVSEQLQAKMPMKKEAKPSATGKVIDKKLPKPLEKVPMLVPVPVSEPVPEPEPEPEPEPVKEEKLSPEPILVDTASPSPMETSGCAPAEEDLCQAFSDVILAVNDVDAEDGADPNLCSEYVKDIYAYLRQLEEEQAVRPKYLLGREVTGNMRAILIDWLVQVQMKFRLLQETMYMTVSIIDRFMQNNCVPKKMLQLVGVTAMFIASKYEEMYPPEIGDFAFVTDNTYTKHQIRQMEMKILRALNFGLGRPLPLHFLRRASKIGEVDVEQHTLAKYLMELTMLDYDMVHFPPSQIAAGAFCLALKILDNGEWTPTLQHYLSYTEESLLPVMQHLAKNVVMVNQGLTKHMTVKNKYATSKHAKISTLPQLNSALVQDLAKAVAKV
Sequence of IGF-1R(h) (P08069 31-1367): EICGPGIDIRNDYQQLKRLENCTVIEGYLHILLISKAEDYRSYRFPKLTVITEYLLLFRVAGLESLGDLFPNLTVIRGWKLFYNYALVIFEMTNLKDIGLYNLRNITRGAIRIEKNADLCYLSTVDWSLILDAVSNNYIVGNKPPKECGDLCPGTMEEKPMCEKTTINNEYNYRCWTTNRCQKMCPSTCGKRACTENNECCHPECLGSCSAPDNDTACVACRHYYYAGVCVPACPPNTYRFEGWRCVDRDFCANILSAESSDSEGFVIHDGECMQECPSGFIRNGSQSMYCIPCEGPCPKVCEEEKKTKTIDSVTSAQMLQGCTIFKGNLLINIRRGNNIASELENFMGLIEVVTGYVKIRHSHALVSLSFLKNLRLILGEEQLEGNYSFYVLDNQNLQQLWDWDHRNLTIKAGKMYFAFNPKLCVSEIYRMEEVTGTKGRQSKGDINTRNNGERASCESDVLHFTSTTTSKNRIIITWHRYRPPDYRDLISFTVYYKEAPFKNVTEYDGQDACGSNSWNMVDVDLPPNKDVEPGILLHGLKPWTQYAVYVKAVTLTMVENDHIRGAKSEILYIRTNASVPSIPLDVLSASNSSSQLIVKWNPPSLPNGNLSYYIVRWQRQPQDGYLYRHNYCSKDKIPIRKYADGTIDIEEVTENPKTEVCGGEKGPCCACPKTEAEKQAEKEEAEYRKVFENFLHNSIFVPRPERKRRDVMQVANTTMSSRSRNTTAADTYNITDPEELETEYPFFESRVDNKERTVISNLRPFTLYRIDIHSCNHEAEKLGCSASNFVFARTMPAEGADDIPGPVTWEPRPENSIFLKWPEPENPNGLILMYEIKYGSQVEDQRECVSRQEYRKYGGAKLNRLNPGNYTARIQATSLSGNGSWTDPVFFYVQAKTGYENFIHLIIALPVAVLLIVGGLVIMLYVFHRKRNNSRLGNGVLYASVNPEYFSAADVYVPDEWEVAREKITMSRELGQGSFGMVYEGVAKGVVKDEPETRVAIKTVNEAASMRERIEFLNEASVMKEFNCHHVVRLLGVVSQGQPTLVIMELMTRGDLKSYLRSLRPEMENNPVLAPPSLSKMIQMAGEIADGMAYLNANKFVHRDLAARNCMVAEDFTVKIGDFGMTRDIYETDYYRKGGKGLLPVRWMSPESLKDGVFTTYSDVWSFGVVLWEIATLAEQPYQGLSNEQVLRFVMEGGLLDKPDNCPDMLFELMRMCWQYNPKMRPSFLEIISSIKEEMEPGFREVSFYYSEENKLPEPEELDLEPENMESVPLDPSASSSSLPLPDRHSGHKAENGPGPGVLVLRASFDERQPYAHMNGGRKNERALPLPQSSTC

As to `CN1CCCC1CCNC(=O)c1cn2c3c(c(N4CCC(c5cnccn5)C4)c(F)cc3c1=O)Oc1cc3ccccc3cc1-2` (stereo not drawn) [Compound A-1], the remaining activity at 2.5 µM at CDK1/cyclinB(h) stood at 84%; on DDR2(h) it was 77%; on IGF-1R(h) it was 103%; on PKBα(h), 91%; at PRAK(h) it was 105%; on SGK2(h), 38%.
As for `CC(=O)N1CCN(c2ccc3c(=O)c(C(=O)NCCN4CCCC4)c4n(C)c5ccccc5n4c3n2)CC1` [Compound B-1], the remaining activity at 2.5 µM on CDK1/cyclinB(h) came out at 93%; on DDR2(h), 95%; on IGF-1R(h), 113%; at PKBα(h) it was 103%; at PRAK(h), 111%; at SGK2(h), 104%.
